Measurements published in US9463174B2, “Pharmaceutical composition for the treatment of type-1 diabetes” (priority 2008, dated 2016).

Legend:
INS-1 cells = assay: GABA production and release from insulin-secreting beta-cells (Free Amino Acid Analysis); assay type: cell-based
Experimental: In these in vitro assays using GLP-1-secreting and/or insulin-secreting cells, it was shown that the production and secretion of GLP-1 in the gut-derived cells (STC-1) were modulated by GABA, and the production and release of GABA from the beta-cells were also modulated by GLP-1. The specificity of these assays was determined by including the GABAAR antagonists or GLP-1 receptor antagonist in the assays.
The Free Amino Acid Analysis was performed on a Waters Acquity UPLC System. The Waters Acquity UPLC system employed consists of a Binary Solvent Manager, a Sample Manager, a TUV Detector and a Waters Acquity UPLC BEH C18 column (2.1×100 mm). Data was collected, stored and processed using Waters Empower 2 Chromatography software. Drying was done using a Tomy CC-181 Centrifugal Concentrator with a Sargent-Welch Model 8821 Vacuum pump. The operational procedures are as following: an aliquot of the sample was transferred into a 6×55 mm glass culture tube and dried under vacuum using a centrifugal evaporator. After drying, the sample was treated with a redrying solution consisting of methanol:water:triethylamine (2:2:1), vortex-mixed and dried under vacuum for 15 minutes. […] The derivatized amino acids were detected at 254 nm.
GABA concentrations were determined by the Free Amino Acid Analysis. […]

T1D-prone NOD mice = settings: monotherapy, Hadjiyanni I et al 2008; cited from earlier work

GLP-1: incretin hormone glucagon-like peptide-1, SEQ ID NO: 1
production and release of GABA from the beta-cells (INS-1 cells): modulated
efficacy on diabetes onset in T1D-prone NOD mice (T1D-prone NOD mice): only marginally effective
